Reference: patent US5328840A, “Method for preparing targeted carrier erythrocytes” (The Research Foundation of the State University of New York, priority 1991, dated 1994)

What was measured:
[1] = target: T1, 7E3 binding to platelets (Homo sapiens, UniProt P05106+P08514); experiment: Effect of RGD peptides on initial rate of 125I-7E3 binding to platelets
T1 construct: endogenous in cells; host or cells: platelets in citrated platelet-rich plasma (PRP)
Experimental: (§1) To assess the effect of RGD-containing peptides on the initial rate of binding of 7E3 and 10E5, studies were conducted with ^125 I-7E3 and ^125 I-10E5 essentially as described before (Coller, B.S., 1985, J. Clin. Invest. 76:101). The RGDS or LGGAKQAGDV(R)8 RGDV peptide was incubated at 22° C. with citrated PRP (~3×10^8 /ml) for 1 to 5 min at various concentrations and then non-saturating concentrations of the antibodies (1.5-2.5 μg/ml) were added for 1 to 2 min. The bound antibody was separated from the free by centrifugation of the PRP through 20% sucrose and both the platelet pellet and the supernatant were counted. Results were expressed as either an increase or decrease in antibody binding as compared to a buffer control.

[2] = target: T2, 10E5 binding to platelets (Homo sapiens, UniProt P05106+P08514); experiment: Effect of RGD peptides on initial rate of 125I-10E5 binding to platelets; details: similar concentrations (up to 5 mM); one experiment
T2 construct: endogenous in cells; host or cells: platelets in citrated platelet-rich plasma (PRP)
T2 sequence (P08514 32-887 limits assumed): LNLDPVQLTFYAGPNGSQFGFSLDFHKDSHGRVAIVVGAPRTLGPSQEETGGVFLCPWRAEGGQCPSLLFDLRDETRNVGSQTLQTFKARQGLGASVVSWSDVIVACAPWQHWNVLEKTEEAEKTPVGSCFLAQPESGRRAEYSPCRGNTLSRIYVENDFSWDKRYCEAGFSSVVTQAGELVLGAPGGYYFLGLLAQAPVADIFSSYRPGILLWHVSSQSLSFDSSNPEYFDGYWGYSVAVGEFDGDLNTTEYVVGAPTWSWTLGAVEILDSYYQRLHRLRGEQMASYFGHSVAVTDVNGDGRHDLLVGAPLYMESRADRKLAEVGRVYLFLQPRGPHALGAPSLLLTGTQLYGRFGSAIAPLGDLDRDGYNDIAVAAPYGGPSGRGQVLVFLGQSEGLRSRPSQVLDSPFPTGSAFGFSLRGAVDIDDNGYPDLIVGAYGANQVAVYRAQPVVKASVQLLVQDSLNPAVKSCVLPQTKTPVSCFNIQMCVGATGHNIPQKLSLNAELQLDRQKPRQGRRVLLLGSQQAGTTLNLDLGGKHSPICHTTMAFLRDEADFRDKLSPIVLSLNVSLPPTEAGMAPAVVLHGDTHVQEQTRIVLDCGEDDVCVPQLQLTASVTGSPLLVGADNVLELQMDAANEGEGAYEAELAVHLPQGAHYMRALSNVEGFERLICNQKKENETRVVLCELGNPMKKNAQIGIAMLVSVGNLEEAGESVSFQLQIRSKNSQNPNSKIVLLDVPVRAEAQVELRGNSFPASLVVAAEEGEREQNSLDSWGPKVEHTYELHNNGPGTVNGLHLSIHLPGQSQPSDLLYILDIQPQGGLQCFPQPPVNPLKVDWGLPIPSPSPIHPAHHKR
T2 sequence (P08514 891-1039 partner limits assumed): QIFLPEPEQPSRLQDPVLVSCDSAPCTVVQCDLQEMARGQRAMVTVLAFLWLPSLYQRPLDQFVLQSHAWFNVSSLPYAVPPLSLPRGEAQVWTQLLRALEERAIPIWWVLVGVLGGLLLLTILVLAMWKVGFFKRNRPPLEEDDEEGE
T2 sequence (P05106 27-788): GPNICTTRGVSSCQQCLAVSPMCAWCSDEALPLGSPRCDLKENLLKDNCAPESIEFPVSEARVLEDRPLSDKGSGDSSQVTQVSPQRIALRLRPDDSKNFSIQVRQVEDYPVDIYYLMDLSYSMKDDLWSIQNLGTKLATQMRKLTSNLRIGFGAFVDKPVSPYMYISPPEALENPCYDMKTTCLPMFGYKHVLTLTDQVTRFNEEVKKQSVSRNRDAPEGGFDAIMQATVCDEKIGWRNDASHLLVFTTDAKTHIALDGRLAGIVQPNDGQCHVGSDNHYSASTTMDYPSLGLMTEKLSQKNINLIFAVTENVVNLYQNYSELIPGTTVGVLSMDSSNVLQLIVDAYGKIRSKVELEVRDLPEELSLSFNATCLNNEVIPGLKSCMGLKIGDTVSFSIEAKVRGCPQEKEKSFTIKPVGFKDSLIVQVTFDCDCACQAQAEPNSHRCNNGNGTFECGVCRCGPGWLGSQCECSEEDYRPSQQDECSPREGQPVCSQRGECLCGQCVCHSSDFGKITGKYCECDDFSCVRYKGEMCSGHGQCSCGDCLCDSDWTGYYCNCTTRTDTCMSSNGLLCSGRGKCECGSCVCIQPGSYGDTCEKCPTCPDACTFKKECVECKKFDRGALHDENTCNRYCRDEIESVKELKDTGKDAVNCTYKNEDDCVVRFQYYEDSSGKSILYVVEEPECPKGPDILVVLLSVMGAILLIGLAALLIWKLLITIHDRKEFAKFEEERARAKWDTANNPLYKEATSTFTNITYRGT
Experimental: as §1

T1 sequence (P08514 32-887 limits assumed): as the sequence (P08514 32-887 limits assumed) above
T1 sequence (P08514 891-1039 partner limits assumed): as the sequence (P08514 891-1039 partner limits assumed) above
T1 sequence (P05106 27-788): as the sequence (P05106 27-788) above

With RGDS the “increase in initial rate of 7E3 binding” value ([1]; peptide 2.5 mM, n=1) was 63%, the “increase in initial rate of 7E3 binding” value ([1]; peptide 5 mM, citrated PRP, n=2) was 66% and the “increase in initial rate of 7E3 binding” value ([1]; peptide 0.5-1 mM, n=4) was 21%. For the same substance, the “decrease in rate of 10E5 binding” value [2] was 5%.
